Measurements: BindingDB's records for doi:10.1002/cbic.200500089 (Progen Industries, 2005)

How the values were obtained:
[1] = target: Fibroblast growth factor 1 (Homo sapiens, UniProt P05230); assay: Binding Assay; conditions: pH 7.4
Description: (§1) Human FGF-1 and FGF-2 were purchased from R&D Systems, Inc. and supplied as protein (ug) dissolved in bovine serum albumin (BSA, 50ug). Surface plasmon resonance (SPR) measurements were performed on a BIA-core 3000 from BIAcore, Uppsala, Sweden and operated by the BIAcore control software.

[2] = target: Fibroblast growth factor 2 (Homo sapiens, UniProt P09038); assay: Binding Assay; conditions: pH 7.4
Description: as §1

Chain of Fibroblast growth factor 1 (P05230 whole entry): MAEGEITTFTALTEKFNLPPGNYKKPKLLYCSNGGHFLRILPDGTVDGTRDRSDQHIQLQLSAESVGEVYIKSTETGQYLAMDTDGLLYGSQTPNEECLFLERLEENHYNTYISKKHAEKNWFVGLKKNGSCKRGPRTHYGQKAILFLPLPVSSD
Chain of Fibroblast growth factor 2 (P09038 143-288 limits assumed): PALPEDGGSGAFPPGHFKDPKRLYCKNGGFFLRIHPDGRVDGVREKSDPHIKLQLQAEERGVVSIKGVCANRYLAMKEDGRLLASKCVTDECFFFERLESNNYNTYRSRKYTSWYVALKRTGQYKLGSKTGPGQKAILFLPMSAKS

| Kd [1] | Kd [2] | SMILES |
| --- | --- | --- |
| 0.0404 µM | 0.108 µM | O=S(=O)(O)O[C@H]1[C@H](OS(=O)(=O)O)[C@@H](N(CCCCCCCCN([C@H]2C=C[C@@H](OS(=O)(=O)O)[C@@H](OS(=O)(=O)O)[C@@H]2OS(=O)(=O)O)[C@H]2C=C[C@@H](OS(=O)(=O)O)[C@@H](OS(=O)(=O)O)[C@@H]2OS(=O)(=O)O)[C@H]2C=C[C@@H](OS(=O)(=O)O)[C@@H](OS(=O)(=O)O)[C@@H]2OS(=O)(=O)O)C=C[C@H]1OS(=O)(=O)O [Linked sulfated tetracyclitol, 8] |
| 0.119 µM | 0.194 µM | O=S(=O)(O)O[C@H]1[C@H](OS(=O)(=O)O)[C@@H](N(CCCCCCCCCN([C@H]2C=C[C@@H](OS(=O)(=O)O)[C@@H](OS(=O)(=O)O)[C@@H]2OS(=O)(=O)O)[C@H]2C=C[C@@H](OS(=O)(=O)O)[C@@H](OS(=O)(=O)O)[C@@H]2OS(=O)(=O)O)[C@H]2C=C[C@@H](OS(=O)(=O)O)[C@@H](OS(=O)(=O)O)[C@@H]2OS(=O)(=O)O)C=C[C@H]1OS(=O)(=O)O [Linked sulfated tetracyclitol, 9] |
| 0.115 µM | 0.448 µM | O=S(=O)(O)O[C@H]1[C@H](OS(=O)(=O)O)[C@@H](N(CCCCCCCCCCN([C@H]2C=C[C@@H](OS(=O)(=O)O)[C@@H](OS(=O)(=O)O)[C@@H]2OS(=O)(=O)O)[C@H]2C=C[C@@H](OS(=O)(=O)O)[C@@H](OS(=O)(=O)O)[C@@H]2OS(=O)(=O)O)[C@H]2C=C[C@@H](OS(=O)(=O)O)[C@@H](OS(=O)(=O)O)[C@@H]2OS(=O)(=O)O)C=C[C@H]1OS(=O)(=O)O [Linked sulfated tetracyclitol, 10] |

Further lines, the compound ahead of its results:

| SMILES | Kd [1] | Kd [2] |
| --- | --- | --- |
| O=S(=O)(O)O[C@H]1[C@H](OS(=O)(=O)O)[C@@H](N(CCN([C@H]2C=C[C@@H](OS(=O)(=O)O)[C@@H](OS(=O)(=O)O)[C@@H]2OS(=O)(=O)O)[C@H]2C=C[C@@H](OS(=O)(=O)O)[C@@H](OS(=O)(=O)O)[C@@H]2OS(=O)(=O)O)[C@H]2C=C[C@@H](OS(=O)(=O)O)[C@@H](OS(=O)(=O)O)[C@@H]2OS(=O)(=O)O)C=C[C@H]1OS(=O)(=O)O [Linked sulfated tetracyclitol, 2] | 0.0207 µM | 1.1 µM |
| O=S(=O)(O)O[C@H]1[C@H](OS(=O)(=O)O)[C@@H](N(CCCN([C@H]2C=C[C@@H](OS(=O)(=O)O)[C@@H](OS(=O)(=O)O)[C@@H]2OS(=O)(=O)O)[C@H]2C=C[C@@H](OS(=O)(=O)O)[C@@H](OS(=O)(=O)O)[C@@H]2OS(=O)(=O)O)[C@H]2C=C[C@@H](OS(=O)(=O)O)[C@@H](OS(=O)(=O)O)[C@@H]2OS(=O)(=O)O)C=C[C@H]1OS(=O)(=O)O [Linked sulfated tetracyclitol, 3] | 0.0072 µM | 0.248 µM |
| O=S(=O)(O)O[C@H]1[C@H](OS(=O)(=O)O)[C@@H](N(CCCCN([C@H]2C=C[C@@H](OS(=O)(=O)O)[C@@H](OS(=O)(=O)O)[C@@H]2OS(=O)(=O)O)[C@H]2C=C[C@@H](OS(=O)(=O)O)[C@@H](OS(=O)(=O)O)[C@@H]2OS(=O)(=O)O)[C@H]2C=C[C@@H](OS(=O)(=O)O)[C@@H](OS(=O)(=O)O)[C@@H]2OS(=O)(=O)O)C=C[C@H]1OS(=O)(=O)O [Linked sulfated tetracyclitol, 4] | 0.0254 µM | 0.161 µM |
| O=S(=O)(O)O[C@H]1[C@H](OS(=O)(=O)O)[C@@H](N(CCCCCN([C@H]2C=C[C@@H](OS(=O)(=O)O)[C@@H](OS(=O)(=O)O)[C@@H]2OS(=O)(=O)O)[C@H]2C=C[C@@H](OS(=O)(=O)O)[C@@H](OS(=O)(=O)O)[C@@H]2OS(=O)(=O)O)[C@H]2C=C[C@@H](OS(=O)(=O)O)[C@@H](OS(=O)(=O)O)[C@@H]2OS(=O)(=O)O)C=C[C@H]1OS(=O)(=O)O [Linked sulfated tetracyclitol, 5] | 0.0298 µM | 0.148 µM |
| O=S(=O)(O)O[C@H]1[C@H](OS(=O)(=O)O)[C@@H](N(CCCCCCN([C@H]2C=C[C@@H](OS(=O)(=O)O)[C@@H](OS(=O)(=O)O)[C@@H]2OS(=O)(=O)O)[C@H]2C=C[C@@H](OS(=O)(=O)O)[C@@H](OS(=O)(=O)O)[C@@H]2OS(=O)(=O)O)[C@H]2C=C[C@@H](OS(=O)(=O)O)[C@@H](OS(=O)(=O)O)[C@@H]2OS(=O)(=O)O)C=C[C@H]1OS(=O)(=O)O [Linked sulfated tetracyclitol, 6] | 0.039 µM | 0.135 µM |
| O=S(=O)(O)O[C@H]1[C@H](OS(=O)(=O)O)[C@@H](N(CCCCCCCN([C@H]2C=C[C@@H](OS(=O)(=O)O)[C@@H](OS(=O)(=O)O)[C@@H]2OS(=O)(=O)O)[C@H]2C=C[C@@H](OS(=O)(=O)O)[C@@H](OS(=O)(=O)O)[C@@H]2OS(=O)(=O)O)[C@H]2C=C[C@@H](OS(=O)(=O)O)[C@@H](OS(=O)(=O)O)[C@@H]2OS(=O)(=O)O)C=C[C@H]1OS(=O)(=O)O [Linked sulfated tetracyclitol, 7] | 0.008 µM | 0.09 µM |
